Test results as given in patent US6238873A, “Methods of screening for agonists and antagonists of the interaction between the human KIAA0001 receptor and ligands thereof” (Smithkline Beecham Corporation, priority 1999, dated 2001).

These compounds were tested against T1, human KIAA0001 receptor (Homo sapiens, UniProt Q15391) (assay: Specificity of response: nucleotide di-phosphate sugar spotted onto agar plate infused with yeast carrying human KIAA0001 receptor and FUS1-LacZ reporter). Conditions: 10 nmoles (1 microliter of 10 mM solution) spotted onto agar plate.
T1 sequence (Q15391 1-338): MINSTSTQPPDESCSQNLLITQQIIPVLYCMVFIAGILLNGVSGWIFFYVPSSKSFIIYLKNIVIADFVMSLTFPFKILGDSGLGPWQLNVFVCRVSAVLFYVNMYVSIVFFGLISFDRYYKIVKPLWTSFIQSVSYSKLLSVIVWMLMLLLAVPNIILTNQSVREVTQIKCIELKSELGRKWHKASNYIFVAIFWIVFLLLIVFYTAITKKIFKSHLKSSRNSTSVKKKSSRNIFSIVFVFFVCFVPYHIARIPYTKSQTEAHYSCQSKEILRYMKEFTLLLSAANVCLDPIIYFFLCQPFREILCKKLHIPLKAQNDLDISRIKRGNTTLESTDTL
Type: cell-based
Protocol: The specificity of this response was determined by spotting 10 nmoles (1 microliter of 10 mM solution) of each nucleotide di-phosphate sugar onto an agar plate infused with a yeast strain carrying the human KIAA0001 receptor and the FUS1-LacZ reporter, as described above.

Row | SMILES | response on agar plate (FUS1-LacZ reporter)
1 | Nc1ncnc2c1ncn2[C@@H]1O[C@H](COP(=O)(O)OP(=O)(O)O[C@H]2O[C@H](CO)[C@@H](O)[C@H](O)[C@H]2O)[C@@H](O)[C@H]1O [ADP-glucose] | failed to produce a response
2 | Nc1ncnc2c1ncn2[C@@H]1O[C@H](COP(=O)(O)OP(=O)(O)O[C@H]2O[C@H](CO)[C@@H](O)[C@H](O)[C@@H]2O)[C@@H](O)[C@H]1O [ADP-mannose] | failed to produce a response
3 | Nc1nc2c(ncn2[C@@H]2O[C@H](COP(=O)(O)OP(=O)(O)O[C@H]3O[C@H](CO)[C@@H](O)[C@H](O)[C@H]3O)[C@@H](O)[C@H]2O)c(=O)[nH]1 [GDP-glucose] | failed to produce a response
4 | Nc1ccn([C@@H]2O[C@H](COP(=O)(O)OP(=O)(O)O[C@H]3O[C@H](CO)[C@@H](O)[C@H](O)[C@H]3O)[C@@H](O)[C@H]2O)c(=O)n1 [CDP-glucose] | failed to produce a response
5 | Nc1nc2c(ncn2[C@@H]2O[C@H](COP(=O)(O)OP(=O)(O)O[C@H]3O[C@H](CO)[C@@H](O)[C@H](O)[C@@H]3O)[C@@H](O)[C@H]2O)c(=O)[nH]1 [GDP-mannose] | failed to produce a response
6 | Nc1ncnc2c1ncn2[C@@H]1O[C@H](COP(=O)(O)OP(=O)(O)OC[C@H]2OC(O)[C@H](O)[C@@H]2O)[C@@H](O)[C@H]1O (stereo partly drawn) [ADP-ribose] | failed to produce a response
7 | C[C@@H]1O[C@H](OP(=O)(O)OP(=O)(O)OC[C@H]2O[C@@H](n3cnc4c(=O)[nH]c(N)nc43)[C@H](O)[C@@H]2O)[C@@H](O)[C@H](O)[C@@H]1O [GDP-fucose] | failed to produce a response
8 | O=C(O)[C@H]1O[C@H](OP(=O)(O)OP(=O)(O)OC[C@H]2O[C@@H](n3ccc(=O)[nH]c3=O)[C@H](O)[C@@H]2O)[C@H](O)[C@@H](O)[C@@H]1O [UDP-glucuronic acid] | positive response
9 | Cc1cn([C@H]2C[C@H](O)[C@@H](COP(=O)(O)OP(=O)(O)O[C@H]3O[C@H](CO)[C@@H](O)[C@H](O)[C@H]3O)O2)c(=O)[nH]c1=O [TDP-glucose] | failed to produce a response
10 | CC(=O)N[C@H]1[C@@H](OP(=O)(O)OP(=O)(O)OC[C@H]2O[C@@H](n3ccc(=O)[nH]c3=O)[C@H](O)[C@@H]2O)O[C@H](CO)[C@@H](O)[C@@H]1O [UDP-N-acetyl glucosamine] | positive response

Each compound was assayed against T1, human KIAA0001 receptor (assay: not given). Conditions: FUS1-LacZ yeast expressing human KIAA0001 receptor.

Row | SMILES | response determined by expression of -galactosidase
11 | O=C(O)[C@H]1O[C@H](OP(=O)(O)OP(=O)(O)OC[C@H]2O[C@@H](n3ccc(=O)[nH]c3=O)[C@H](O)[C@@H]2O)[C@H](O)[C@@H](O)[C@@H]1O [UDP-glucuronic acid] | receptor-dependentresponse
12 | CC(=O)N[C@H]1[C@@H](OP(=O)(O)OP(=O)(O)OC[C@H]2O[C@@H](n3ccc(=O)[nH]c3=O)[C@H](O)[C@@H]2O)O[C@H](CO)[C@@H](O)[C@@H]1O [UDP-N-acetyl glucosamine] | receptor-dependentresponse
